The values that follow come from patent US20090209474A1, “NOVEL USES FOR DRUGS TARGETING GLUTAMINE SYNTHETASE” (NEWTHERA, priority 2005, published 2009).

Assay [1] has as its system glutamate metabotropic receptor. The note with it: cited from earlier work.
Assay [2] in a line: Adrenal weight in corticosterone-administered rats. The format is in vivo, Wistar rats.
The target of the next assay is T1, Wistar rat brain GS (Rattus norvegicus, UniProt P09606).
T1 construct: from tissue; host or cells: Wistar rat brain homogenate or membranes; in A19 also liver and lungs
T1 sequence (P09606 2-373 limits assumed): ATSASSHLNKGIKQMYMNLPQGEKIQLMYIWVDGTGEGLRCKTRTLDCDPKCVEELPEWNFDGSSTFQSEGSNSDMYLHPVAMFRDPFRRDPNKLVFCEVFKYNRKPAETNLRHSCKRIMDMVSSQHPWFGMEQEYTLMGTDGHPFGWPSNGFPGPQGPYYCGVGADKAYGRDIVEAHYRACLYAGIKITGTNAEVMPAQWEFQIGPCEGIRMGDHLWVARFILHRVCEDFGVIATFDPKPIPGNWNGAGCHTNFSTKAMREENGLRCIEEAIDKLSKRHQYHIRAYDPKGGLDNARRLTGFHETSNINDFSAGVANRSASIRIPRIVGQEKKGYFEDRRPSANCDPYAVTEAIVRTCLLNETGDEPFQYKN
The assay is described as follows: GS activity in Wistar rat brain homogenates. To be noted: in absence of 2β-ME. It counts as biochemical. As for the experimental part: GS activity was assessed as mentioned above for purified sheep brain GS.

For the next assay, the target named is GS (rat liver) (Rattus norvegicus, UniProt P09606). The note with it: cited from earlier work.
GS (rat liver), sequence (P09606 2-373 limits assumed): as above
For assay [3], the target named is GS (Rattus norvegicus, UniProt P09606). The format is in vivo, Wistar rats. More on the design: Wistar rat brain homogenates were incubated with naftazone; from tissue; host or cells: Wistar rat brain homogenate or membranes; in A19 also liver and lungs. To be noted: one hour after PTZ 50 mg/kg i.p.
GS (Rattus norvegicus, UniProt P09606), sequence (P09606 2-373 limits assumed): as above
Assay [4] relates to GS. To be noted: cited from earlier work.
The next assay has as its target GS (sheep brain). The note with it: cited from earlier work.
For another assay, the system named is purified sheep brain GS. Description: Purified sheep brain GS activity (Meister's method, gamma-glutamylhydroxamate formation). It counts as biochemical.
In assay [5] the test system is Wistar rats. Description: Open field task in corticosterone-administered rats. The format is in vivo. To be noted: day 15, corticosterone 35 mg/kg s.c.; versus PCB and Control.
For assay [6], the system named is Wistar rats. Description: Forced swimming test in corticosterone-administered rats. It counts as in vivo.
For assay [7], the system named is Wistar rats. Description: PTZ-induced seizures. The note with it: rat, in vivo. The format is in vivo.

Like-named read-outs stand apart in the source and are kept apart here. Residues, ends and D or L forms follow the SMILES beside them.

For the molecule `C[C@@](N)(CCP(=O)(O)O)C(=O)O` [2-Amino-2-methyl-4-phosphono-butyric acid], the “activity at glutamate metabotropic receptors in words” value (“activity … in words” below) in assay [1] is recorded as “Selective mGlu3 glutamate metabotropic receptor antagonist Sekiyama et al., 1996”.

Take `C[C@]12C[C@H](O)[C@H]3[C@@H](CCC4=CC(=O)CC[C@@]43C)[C@@H]1CC[C@@H]2C(=O)CO` [corticosterone]: in assay [2] (repeated administration of corticosterone), the adrenal weight result is on record as “decreased the adrenal weight”.

Regarding `N[C@@]1(C(=O)O)CC[C@H](C(=O)O)C1` [1-Aminocyclopentane-cis-1,3-dicarboxylic acid], the “activity … in words” value in assay [1] is recorded as “Group I/II glutamate metabotropic receptor agonist Olverman et al., 1983”.

`Cc1ccc(O)c(/N=N/c2ccccc2)n1` [6-Methyl-2-(phenylazo)-3-pyridinol]: the “activity … in words” value in assay [1] is reported as “Selective mGlu5 glutamate metabotropic receptor antagonist Varney et al., 1999”.

On to `[Sr+2]` [strontium], for which, on Wistar rat brain GS (at 10^−10 M), the “maximum decrease of GS activity” value is given as 75%.

By Ki is commonly meant a measure of affinity in units of concentration, obtained from inhibition or displacement. In the case of `CP(=O)(O)C(N)CCC(=O)O` (stereo not shown) [4-Amino-4-(hydroxymethylphosphinyl) butanoic acid], the Ki at GS (rat liver) was 800 µM.

With `N[C@]1(C(=O)O)CCc2cc(C(=O)O)ccc21` (racemic) [(RS)-1-Aminoindan-1,5-dicarboxylic acid], the “activity … in words” value in assay [1] is “mGlu1 glutamate metabotropic receptor antagonist Pellicciari et al.,1995”.

For “(2S,3S,4S)-2-Methyl-2-(carboxycyclopropyl)glycine”, the “activity … in words” value in assay [1] is “mGlu2 glutamate metabotropic receptor antagonist Jane et al., 1994”.

Take `C1CCc2nnnn2CC1` [PTZ, pentylenetetrazole]: the “GS activity in the cortex, hippocampus and thalamus” value on GS [3] is recorded as “low”.

Regarding `COC(=O)CCC(N)P(=O)(O)O` (stereo not shown) [Methyl 4-amino-4-phosphono butanate], at GS (rat liver), the Ki was 2100 µM.

As for `C[C@@](N)(CCS(C)(=N)=O)C(=O)O` (stereo partly drawn) [Alpha-methyl methionine sulfoximine], in the assay with GS [4], the “GS inhibition in words” value is “Slightly less inhibitory synthetic MS derivative Eisenberg et al., 2000”.

For `NC1(C(=O)O)CCCC(P(=O)(O)O)C1` (stereo not shown) [Cyclohexane phosphinothricin, 1-Amino-3-phosphono-cyclohexane-carboxylic acid], the Ki on GS (sheep brain) is 125 µM.

Turning to `CP(=O)(O)C(O)CC(N)C(=O)O` (stereo not shown) [Gamma-hydroxy phosphinothricin], the inhibition constant (Ki) on GS (sheep brain) is 47 µM.

In the case of `CC(N)(CCP(=O)(O)O)C(=O)O` (stereo not shown) [2-Amino-2-methyl-4-phosphono butanoic acid], the Ki at GS (rat liver) is 6300 µM.

As for `NC(C(=O)O)c1cc(O)cc(O)c1` (racemic) [(RS)-3,5-Dihydroxyphenylglycine], the “activity … in words” value in assay [1] was “Group I selective glutamate metabotropic receptor agonist (activates mGlu1 and mGlu5) Schoepp et al., 1994”.

On to `N[C@@H](CC[S+]([O-])CP(=O)(O)O)C(=O)O` (stereo partly shown) [s-Phosphonomethyl homocysteine sulfoxide], for which the “GS inhibition in words” value with GS [4] is “Synthetic inhibitor Logusch et al., 1988 Eisenberg et at., 2000”.

Regarding `Cc1cc(C(=O)O)ccc1[C@H](N)C(=O)O` [(S)-(+)-Amino-4-carboxy-2-methylbenzeneacetic acid], in assay [1], the “activity … in words” value was “Selective mGlu1a glutamate metabotropic receptor antagonist Clarke et al., 1997”.

Turning to `CC(=O)N[C@@H](CC(=O)O)C(=O)N[C@@H](CCC(=O)O)C(=O)O` [N-Acetyl-L-aspartyl-L-glutamic acid] (Ac-Asp-Glu-OH), the “activity … in words” value in assay [1] is recorded as “Highly selective mGlu3 glutamate metabotropic receptor agonist Morris et al., 1965”.

For the molecule `CC(N)(CCC(=O)O)[PH](=O)CO` (stereo not shown) [4-Amino-4-(hydroxymethylphosphinyl)-4-methyl butanoic acid], the Ki at GS (rat liver) (read-out: Ki) is 9500 µM.

For `CC1(/C=C/c2ccccc2)C=CC=CN1` (stereo not shown) [2-Methyl-2-(phenylethenyl)pyridine], the “activity … in words” value in [1] is given as “Selective mGlu5 glutamate metabotropic receptor antagonist Varney et al., 1999”.

`[Li]` [lithium, Li2CO3]: the “maximum decrease of GS activity” value on Wistar rat brain GS (at 0.01 M) is reported as 40%.

`N[C@@H](CSS(=O)(=O)[O-])C(=O)O.[Na+]` [S-Sulfo-L-cysteine sodium salt]: the “activity … in words” value in [1] was “mGlu1a and mGlu5a glutamate metabotropic receptor agonist Mewett et al., 1983”.

As for `NNC(=O)c1ccncc1` [isoniazid, Isoniazid], in the assay with purified sheep brain GS, the “tested on GS activity: ligand or not” value is recorded as “GS ligands”.

On to `COC(=O)C(CCP(=O)(O)O)C(=O)O` (stereo not shown) [2-Methoxycarbonyl-4-phosphono butanoic acid], for which the Ki at GS (rat liver) was 8700 µM.

For the molecule `CC(CC(N)C(=O)O)P(C)(=O)O` (stereo not shown) [Gamma methyl phosphinothricin], the Ki at GS (sheep brain) was 407 µM.

On to `N[C@H](C(=O)O)[C@@H]1[C@@H](C(=O)O)C1(F)F` [(2S,1′S,2′S)-2-(2′-Carboxy-3′,3′-difluorocyclopropyl)glycine], for which, in [1], the “activity … in words” value is listed as “Glutamate metabotropic receptor agonist Shinozaki et al., 1996”.

As to `CC(N)(CCP(C)(=O)O)C(=O)O` (stereo not drawn) [Alpha-methyl phosphinothricin], the Ki at GS (sheep brain) is 125 µM.

In the case of `CCC(N)(CCP(C)(=O)O)C(=O)O` (stereo not drawn) [Alpha-ethyl phosphinothricin], the Ki at GS (sheep brain) was 111 µM.

On to `NC(CCP(=O)(O)O)C(=O)O` (stereo not shown) [2-Amino-4-phosphono butanoic acid], for which, at GS (rat liver), the inhibition constant Ki was 880 µM.

`NC(C(=O)O)c1cccc(O)c1` (racemic) [(RS)-3-Hydroxyphenylglycine]: in assay [1], the “activity … in words” value was “Glutamate metabotropic receptor agonist Thomsen and Suzdak, 1993”.

As to `N[C@](CC1c2ccccc2Oc2ccccc21)(C(=O)O)[C@H]1C[C@@H]1C(=O)O` [(2S)-2-Amino-2-[(1S,2S)-2-carboxycycloprop-1-yl]-3-(xanth-9-yl) propanoic acid], the “activity … in words” value in assay [1] was “Highly potent mGlu2 glutamate metabotropic receptor antagonist Ornstein et al., 1998”.

Consider `CS(=O)(=O)CC[C@H](N)C(=O)O` [Methionine sulfone], for which the “GS inhibition in words” value in the assay on GS [4] is “Very potent ATP-dependent inhibitor of GS activity in a number of species. First discovered in nitrogen chloride treated zein. Eisenberg et al., 2000”.

In the case of `O=C(O)[C@@H]1C[C@@H](C(=O)O)N1` (relative stereo) [Trans-Azetidine-2,4-dicarboxylic acid], the “activity … in words” value in assay [1] is “Group I selective glutamate metabotropic receptor agonist. (activates mGlu1 and mGlu5) Kozikowski et al., 1993”.

Turning to `N[C@@H](CCS(=O)(=O)CP(=O)(O)O)C(=O)O` [s-Phosphonomethyl homocysteine sulfone], the inhibition constant Ki at GS [4] was 1400 µM.

As for `N[C@H](C(=O)O)c1cc(=O)[nH]o1` [Ibotenic acid], the “activity … in words” value in [1] is reported as “Glutamate metabotropic receptor agonist Johnston, 1968”.

In the case of `NC(CCC(=O)O)P(=O)(O)O` (stereo not shown) [4-Amino-4-phosphono butanoic acid], the Ki on GS (rat liver) is 1300 µM.

In the case of `N[C@@H](C[C@H](CCCC(c1ccccc1)c1ccccc1)C(=O)O)C(=O)O` [(4S)-4-(4,4-Diphenylbutyl)-L-glutamic acid], the “activity … in words” value in [1] is “Selective and competitive mGlu2 glutamate metabotropic receptor antagonist Wermuth et al., 1996”.

Turning to `CN1c2ccccc2C(NCCCCCCC(=O)O)c2ccc(Cl)cc2S1(=O)=O` (stereo not shown) [tianeptine, 7-[(3-chloro-6,11-dihydro-6-methyl-dibenzo[c,f][1,2]thiazepin-11-yl)amino] heptanoic acid S,S-dioxide], the “resting time in the open field task” value in the assay with Wistar rats [5] was “higher”. The “immobility in the forced swimming test” value was “clear decrease in immobility” in the assay with Wistar rats [6] (GF 0.1 mg/kg, tianeptine 0.5 mg/kg); “comparable or lower” with Wistar rats [6] (day 19, corticosterone 35 mg/kg s.c., versus PCB and Control). Besides, the adrenal weight result in assay [2] (21 days, versus PCB) was “higher”. The “dose of maximum effect on seizures” value in the assay with Wistar rats [7] is recorded as 10 mg/kg. For the same molecule, the “dose relation of the effect on seizures” value with Wistar rats [7] is “U-shaped”.
